Test results from PubChem BioAssay (NCI).
“And” between values parts separate entries of the source, which are not always exact repeats. Equal values may be shown once.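 The compound was tested at five concentrations on cells cultured in 96-well plates, with a 48-hour exposure period. GI50 marks 50% less growth. TGI marks complete inhibition of growth.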

What was measured:
Assay in all cases: growth of human tumour cells (NCI), 48 h
HL-60(TB) leukemia = test system: HL-60(TB) leukemia
IGROV1 ovarian = test system: IGROV1 ovarian
K-562 leukemia = test system: K-562 leukemia
NCI-H226 lung = test system: NCI-H226 lung
NCI-H23 lung = test system: NCI-H23 lung
SK-MEL-5 melanoma = test system: SK-MEL-5 melanoma
SK-OV-3 ovarian = test system: SK-OV-3 ovarian
SN12C renal = test system: SN12C renal
SR leukemia = test system: SR leukemia
UO-31 renal = test system: UO-31 renal

Row | Structure (SMILES) | GI50 (HL-60(TB) leukemia) | TGI (HL-60(TB) leukemia) | GI50 (IGROV1 ovarian) | TGI (IGROV1 ovarian) [µM] | GI50 (K-562 leukemia) | TGI (K-562 leukemia) | GI50 (NCI-H226 lung) | TGI (NCI-H226 lung) | GI50 (NCI-H23 lung) | TGI (NCI-H23 lung) [µM] | GI50 (SK-MEL-5 melanoma) | TGI (SK-MEL-5 melanoma) [µM] | GI50 (SK-OV-3 ovarian) | TGI (SK-OV-3 ovarian) | GI50 (SN12C renal) | TGI (SN12C renal) [µM] | GI50 (SR leukemia) | TGI (SR leukemia) [µM] | GI50 (UO-31 renal) | TGI (UO-31 renal)
1 | CN(C)C(=O)c1cc2cnc(Nc3ccc(N4CCNCC4)cn3)nc2n1C1CCCC1 | 1.74 µM | 28.1 µM | 19.5 µM | > 100 | 17.6 µM | > 100 µM | 25.2 µM | > 100 µM | 13.9 µM | 63.2 | 11.6 µM | 24.5 | 34.8 µM | > 100 µM | 13.9 µM | 93.6 | 3.21 µM | 38.7 | 4.56 µM | 62.1 µM
2 | CC(C)(CCc1nc2ccccc2[nH]1)C(=O)O | – | > 100 µM | – | > 100 | – | > 100 µM | – | > 100 µM | – | > 100 | – | > 100 | – | > 100 µM | – | > 100 | – | > 100 | – | > 100 µM
3 | CCc1c[nH]c2ncnc(N3CC[C@](N)(CNC(=O)c4ccc(F)cc4F)C3)c12 | 56.2 µM | > 100 µM | 0.207 µM | 6.67 | > 54.1 µM | > 100 µM | 5.75 µM | > 77.7 µM | 18.6 µM | > 100 | 15.8 µM | > 52.5 | 0.973 µM | > 62.1 µM | 24.2 µM | > 100 | 2.19 µM | > 66.3 | 1.52 µM | 47.6 µM
4 | COC(=O)C1=C(C)C(=O)C2(CCCCCC2C(=O)OC)C1 (stereo not given) | – | > 100 µM | – | > 100 | – | > 100 µM | – | > 100 µM | – | > 100 | – | > 100 | – | > 100 µM | – | > 100 | – | > 100 | – | > 100 µM
5 | Cc1c(C(=O)C/C(=N/NC(=O)CC#N)C(N)=O)[n+](=O)c2ccccc2n1[O-] | – | 69.4 µM | – | 87.5 | – | > 100 µM | – | > 100 µM | – | > 100 | – | > 100 | – | > 100 µM | – | 97.7 | – | > 100 | – | > 100 µM
6 | COc1cc2nccc(Oc3ccc(NC(=O)C4(C(=O)Nc5ccc(F)cc5)CC4)cc3)c2cc1OC | > 10 µM and 3.87 µM | > 10 µM and 21.6 µM | 4.51 µM and 2.59 µM | > 31 | 2.15 µM and 0.281 µM | > 10 µM and 2.82 µM | 2.29 µM and 1.7 µM | > 10 µM and 5.52 µM | > 10 µM and 2.83 µM | > 100 | > 10 µM and 4.66 µM | > 100 | > 10 µM and 5.83 µM | > 10 µM and 42.3 µM | 3.97 µM and 1.02 µM | > 54.2 | > 10 µM and 2.21 µM | > 23.7 | 4.3 µM and 2.33 µM | > 10 µM and 12.7 µM
7 | O=C(c1ccccc1)c1ccc(N2C(=O)C3C4c5ccccc5C(/C=C/C(=O)c5ccccn5)(c5ccccc54)C3C2=O)cc1 (stereo not given) | 1.9 µM | 28.1 µM | 1.86 µM | 4.48 | 1.77 µM | > 100 µM | 2.06 µM | 4.48 µM | 2.05 µM | 5.09 | 2.36 µM | 5.71 | > 81.7 µM | > 100 µM | 2.73 µM | > 100 | 1.37 µM | > 100 | 1.45 µM | 2.92 µM
